Assay results as given in US12435051B2, “Dual modulator of mGluR5 and 5-HT2A receptor, and use thereof” (Vivozon Inc., priority 2020, dated 2025).
pIC50: −log10 of the molar value.

Tests used:
mGluR5 = biological target: T1, mGluR5 (Homo sapiens, UniProt P41594); assay: Fluorescence-based Ca2+ mobilization assay; type: cell-based; conditions: HEK293 cells overexpressing mGluR5; L-glutamate at EC80
T1 construct: expressed in transfected cells; host or cells: HEK293
Protocol: In order to measure the activity on the mGluR5, an experiment was carried out to check the change in the intracellular Ca^2+ level using the HEK293 cell line permanently overexpressing the mGluR5. The cells in the cell culture medium were aliquoted into a 384-well plate coated with poly-D-lysine and cultured in a 37° C. incubator supplied with 5% CO2. The next day, the medium was removed and a dye loading buffer—in which a reagent capable of measuring Ca^2+ was dissolved—was added, and then incubated at 37° C. for 60 minutes. The test compounds were dissolved in 100% DMSO at a final concentration of 10 mM to make a stock solution. The starting concentration of […] was prepared from the stock solution, followed by serial dilutions to prepare working solutions (test compound working solutions). The test compound working solutions were added to the cells that were incubated in the dye loading buffer, which were maintained for 30 minutes at room temperature in a light-shielding state before measurement. The Ca^2+ level change induced by L-glutamate at EC80 concentration was measured for 2 minutes using FLIPR Tetra (MDS Analytical Technologies). The fluorescent Ca^2+ signal values in the presence of the test compounds were normalized to the fluorescent signal elicited by […] concentration of L-glutamate as 100% and that elicited by vehicle as 0% to estimate % inhibition of the test compounds. The efficacy of the test compounds was calculated as IC50 values and represented in Table 1. (+: 1,000-2,000 nM, ++: 500-1,000 nM, +++: 100-500 nM, ++++: less than 100 nM).

human 5-HT2AR = biological target: T2, human 5-HT2AR (Homo sapiens, UniProt P28223); assay: HTRF-based IP1 accumulation assay (5-HT2AR antagonistic effect); type: cell-based; conditions: HEK293 cells overexpressing human 5-HT2AR; serotonin at EC80
T2 construct: expressed in transfected cells; host or cells: HEK293
T2 sequence (P28223 whole entry): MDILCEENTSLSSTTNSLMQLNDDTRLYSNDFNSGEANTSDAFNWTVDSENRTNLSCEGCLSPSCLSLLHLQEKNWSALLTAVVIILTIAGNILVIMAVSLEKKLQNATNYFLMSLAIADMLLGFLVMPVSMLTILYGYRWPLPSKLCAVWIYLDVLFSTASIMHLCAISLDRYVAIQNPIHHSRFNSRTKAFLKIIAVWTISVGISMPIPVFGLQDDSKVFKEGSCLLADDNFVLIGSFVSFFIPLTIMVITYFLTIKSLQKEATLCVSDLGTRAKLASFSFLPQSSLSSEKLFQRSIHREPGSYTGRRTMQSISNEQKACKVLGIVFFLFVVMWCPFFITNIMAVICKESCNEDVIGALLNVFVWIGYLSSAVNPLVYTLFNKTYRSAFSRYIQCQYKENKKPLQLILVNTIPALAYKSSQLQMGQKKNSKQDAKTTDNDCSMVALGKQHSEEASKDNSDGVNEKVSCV
Protocol: The 5-HT2AR antagonistic effect of the test compounds was confirmed by measuring the production amount of IP1 using the HEK293 cell line permanently overexpressing the human 5-HT2AR. The test compounds were dissolved in 100% DMSO to a final concentration of 10 mM. The starting concentration of 10 μM was prepared from the stock solution, followed by serial dilutions to prepare working solutions in a buffer containing lithium chloride (LiCl). The cells and compounds prepared in the test buffer were placed in a 96-well plate and incubated at room temperature for 10 minutes. Serotonin of EC80 concentration was added, followed by incubation at 37° C. for 30 minutes in a light-shielding state. To measure IP1 accumulation in cells, JP1-d2 acceptor and IP1-Cryptate donor-which are HTRF-based substances for fluorescence signals-were added and incubated for 1 hour at room temperature in a light-shielded state. The fluorescent emission signals of acceptor and donor were detected, and HTRF ratio values were substracted by mean value of serotonin control. The percentage of activation was calculated by normalization of the serotonin control (0%) and IP1 control (100%). The IC50 values of the test compounds are represented in Table 1. (+: 1,000-2,000 nM, ++: 500-1,000 nM, +++: 100-500 nM, ++++: less than 100 nM).

T1 sequence (P41594 21-1212): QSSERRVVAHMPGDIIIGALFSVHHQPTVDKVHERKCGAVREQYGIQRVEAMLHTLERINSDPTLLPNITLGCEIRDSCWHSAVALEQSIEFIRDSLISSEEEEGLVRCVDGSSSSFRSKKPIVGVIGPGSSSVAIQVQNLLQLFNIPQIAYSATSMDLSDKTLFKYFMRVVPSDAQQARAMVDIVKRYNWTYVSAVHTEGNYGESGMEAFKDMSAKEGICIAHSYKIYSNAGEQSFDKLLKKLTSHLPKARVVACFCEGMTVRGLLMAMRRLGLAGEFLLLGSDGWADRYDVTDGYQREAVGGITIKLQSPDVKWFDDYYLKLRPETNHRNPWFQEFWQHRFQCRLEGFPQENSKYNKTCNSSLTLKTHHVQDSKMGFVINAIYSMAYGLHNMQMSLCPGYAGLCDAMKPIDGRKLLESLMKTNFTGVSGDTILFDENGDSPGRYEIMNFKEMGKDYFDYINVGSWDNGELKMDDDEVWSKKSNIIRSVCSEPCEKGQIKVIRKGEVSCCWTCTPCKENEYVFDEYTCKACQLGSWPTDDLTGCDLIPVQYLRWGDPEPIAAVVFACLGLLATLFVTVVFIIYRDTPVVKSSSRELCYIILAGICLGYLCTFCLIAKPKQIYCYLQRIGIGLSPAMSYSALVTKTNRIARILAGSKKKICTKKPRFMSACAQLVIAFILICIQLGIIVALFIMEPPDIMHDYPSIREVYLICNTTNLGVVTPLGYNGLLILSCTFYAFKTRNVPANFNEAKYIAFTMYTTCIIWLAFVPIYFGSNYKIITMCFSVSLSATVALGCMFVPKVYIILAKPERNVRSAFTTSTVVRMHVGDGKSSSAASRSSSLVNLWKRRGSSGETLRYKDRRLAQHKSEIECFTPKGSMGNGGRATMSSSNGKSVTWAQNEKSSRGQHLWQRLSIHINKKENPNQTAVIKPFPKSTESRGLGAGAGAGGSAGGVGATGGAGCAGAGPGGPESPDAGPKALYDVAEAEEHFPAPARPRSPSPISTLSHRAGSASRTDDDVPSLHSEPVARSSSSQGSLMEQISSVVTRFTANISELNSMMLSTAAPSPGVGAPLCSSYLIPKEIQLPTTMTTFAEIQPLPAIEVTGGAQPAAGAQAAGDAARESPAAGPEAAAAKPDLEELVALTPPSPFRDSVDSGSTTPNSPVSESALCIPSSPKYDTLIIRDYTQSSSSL

pIC50 (mGluR5) | pIC50 (human 5-HT2AR) | Compound
6.00 to 6.30 | 6.00 to 6.30 | O=C(O)CCC1(CNC(=O)c2ccc(C#Cc3ccccc3F)cc2)CCOCC1 [Example 60, 3-(4-((4-((2-fluorophenyl)ethynyl)benzamido)methyl)tetrahydro-2H-pyran-4-yl)propanoic acid]
5.70 to 6.00 | 6.00 to 6.30 | O=C(O)CCC1(CNC(=O)c2ccc(C#Cc3ccccc3F)cc2)CCCCC1 [Example 61, 3-(1-((4-((2-fluorophenyl)ethynyl)benzamido)methyl)cyclohexyl)propanoic acid]
6.30 to 7.00 | 5.70 to 6.00 | O=C(NCC1(CCCO)CCCCC1)c1ccc(C#Cc2ccccc2F)cc1 [Example 62, 4-((2-fluorophenyl)ethynyl)-N-((1-(3-hydroxypropyl)cyclohexyl)methyl)benzamide]
6.30 to 7.00 | 6.00 to 6.30 | CC1(C)CC(CNC(=O)c2ccc(C#Cc3ccccc3F)cc2)CCO1 (stereo not shown) [Example 67, N-((2,2-dimethyltetrahydro-2H-pyran-4-yl)methyl)-4-((2-fluorophenyl)ethynyl)benzamide]
6.30 to 7.00 | 6.00 to 6.30 | [2H]C([2H])(NC(=O)c1ccc(C#Cc2ccccc2F)cc1)C1CCOCC1 [Example 68, 4-((2-fluorophenyl)ethynyl)-N-((tetrahydro-2H-pyran-4-yl)methyl-d2)benzamide]
6.30 to 7.00 | 6.00 to 6.30 | CC1(C)CC(CNC(=O)c2ccc(C#Cc3ccccc3F)cc2)CO1 (stereo not shown) [Example 70, N-((5,5-dimethyltetrahydrofuran-3-yl)methyl)-4-((2-fluorophenyl)ethynyl)benzamide]
> 7.00 | 6.00 to 6.30 | O=C(NCC1CCCO1)c1ccc(C#Cc2ccccc2F)cc1 (stereo not shown) [Example 71, 4-((2-fluorophenyl)ethynyl)-N-((tetrahydrofuran-2-yl)methyl)benzamide]
> 7.00 | 5.70 to 6.00 | O=C(NCC1(F)CCCCC1)c1ccc(C#Cc2ccc(F)cc2F)cc1 [Example 73, 4-((2,4-difluorophenyl)ethynyl)-N-((1-fluorocyclohexyl)methyl)benzamide]
6.30 to 7.00 | 6.00 to 6.30 | COC(=O)CC1(CNC(=O)c2ccc(C#Cc3ccccc3F)cc2)CCCCC1 [Example 74, methyl 2-(1-((4-((2-fluorophenyl)ethynyl)benzamido)methyl)cyclohexyl)acetate]
6.30 to 7.00 | 6.00 to 6.30 | COC(=O)CC1(CNC(=O)c2ccc(C#Cc3ccccc3F)cc2)CCOCC1 [Example 75, methyl 2-(4-((4-((2-fluorophenyl)ethynyl)benzamido)methyl)tetrahydro-2H-pyran-4-yl)acetate]
6.00 to 6.30 | 6.30 to 7.00 | O=C(O)CC1(CNC(=O)c2ccc(C#Cc3ccccc3F)cc2)CCCCC1 [Example 76, 2-(1-((4-((2-fluorophenyl)ethynyl)benzamido)methyl)cyclohexyl)acetic acid]
> 7.00 | 5.70 to 6.00 | NC(=O)CC1(CNC(=O)c2ccc(C#Cc3ccccc3F)cc2)CCCCC1 [Example 77, N-((1-(2-amino-2-oxoethyl)cyclohexyl)methyl)-4-((2-fluorophenyl)ethynyl)benzamide]
6.30 to 7.00 | 5.70 to 6.00 | NC(=O)CC1(CNC(=O)c2ccc(C#Cc3ccccc3F)cc2)CCOCC1 [Example 78, N-((4-(2-amino-2-oxoethyl)tetrahydro-2H-pyran-4-yl)methyl)-4-((2-fluorophenyl)ethynyl)benzamide]
6.30 to 7.00 | 5.70 to 6.00 | O=C(CC1(CNC(=O)c2ccc(C#Cc3ccccc3F)cc2)CCCCC1)NO [Example 79, 4-((2-fluorophenyl)ethynyl)-N-((1-(2-(hydroxyamino)-2-oxoethyl)cyclohexyl)methyl)benzamide]
6.30 to 7.00 | 6.30 to 7.00 | CNC(=O)CC1(CNC(=O)c2ccc(C#Cc3ccccc3F)cc2)CCCCC1 [Example 80, 4-((2-fluorophenyl)ethynyl)-N-((1-(2-(methylamino)-2-oxoethyl)cyclohexyl)methyl)benzamide]
6.00 to 6.30 | 6.30 to 7.00 | CN(C)C(=O)CC1(CNC(=O)c2ccc(C#Cc3ccccc3F)cc2)CCCCC1 [Example 81, N-((1-(2-(dimethylamino)-2-oxoethyl)cyclohexyl)methyl)-4-((2-fluorophenyl)ethynyl)benzamide]

pIC50 (mGluR5) | pIC50 (human 5-HT2AR) | Compound
5.70 to 6.00 | 5.70 to 6.00 | CC1(CNC(=O)c2ccc(C#Cc3ccccc3F)c(F)c2)COC1 [Example 84, 3-fluoro-4-((2-fluorophenyl)ethynyl)-N-((3-methyloxetan-3-yl)methyl)benzamide]
6.30 to 7.00 | 6.00 to 6.30 | O=C(NC[C@H]1C[C@@H](O)C1)c1ccc(C#Cc2ccccc2F)cc1 [Example 85, 4-((2-fluorophenyl)ethynyl)-N-(((1s,3s)-3-hydroxycyclobutyl)methyl)benzamide]
6.30 to 7.00 | 5.70 to 6.00 | O=C(NC[C@H]1C[C@H](O)C1)c1ccc(C#Cc2ccccc2F)cc1 [Example 86, 4-((2-fluorophenyl)ethynyl)-N-(((1r,3r)-3-hydroxycyclobutyl)methyl)benzamide]
> 7.00 | 6.30 to 7.00 | O=C(NCC1CC(F)(F)C1)c1ccc(C#Cc2ccccc2)cc1 [Example 90, N-((3,3-difluorocyclobutyl)methyl)-4-(phenylethynyl)benzamide]
> 7.00 | 5.70 to 6.00 | O=C(NC[C@@H]1CCCOC1)c1ccc(C#Cc2ccccc2F)cc1 [Example 91, (S)-4-((2-fluorophenyl)ethynyl)-N-((tetrahydro-2H-pyran-3-yl)methyl)benzamide]
6.30 to 7.00 | 6.30 to 7.00 | O=C(NC[C@@H]1CCOC1)c1ccc(C#Cc2ccccc2F)cc1 [Example 93, (S)-4-((2-fluorophenyl)ethynyl)-N-((tetrahydrofuran-3-yl)methyl)benzamide]
> 7.00 | 6.00 to 6.30 | [2H]C(NC(=O)c1ccc(C#Cc2ccccc2F)cc1)C1(C)COC1 (stereo not shown) [Example 95, 4-((2-fluorophenyl)ethynyl)-N-((3-methyloxetan-3-yl)methyl-d)benzamide]
5.70 to 6.00 | 6.00 to 6.30 | O=C(NCC1(N2CCOCC2)CCC1)c1ccc(C#Cc2ccccc2F)cc1 [Example 96, 4-((2-fluorophenyl)ethynyl)-N-((1-morpholinocyclobutyl)methyl)benzamide]
> 7.00 | 5.70 to 6.00 | CC1(CNC(=O)c2ccc(C#Cc3ccccc3F)cc2)CC(F)(F)C1 [Example 97, N-((3,3-difluoro-1-methylcyclobutyl)methyl)-4-((2-fluorophenyl)ethynyl)benzamide]
> 7.00 | 6.00 to 6.30 | CC1(CNC(=O)c2ccc(C#Cc3ccccc3F)cc2)CCCO1 (stereo not shown) [Example 98, 4-((2-fluorophenyl)ethynyl)-N-((2-methyltetrahydrofuran-2-yl)methyl)benzamide]
> 7.00 | 6.30 to 7.00 | O=C(NC[C@H]1CCCOC1)c1ccc(C#Cc2ccc(F)cc2)cc1 [Example 99, (R)-4-((4-fluorophenyl)ethynyl)-N-((tetrahydro-2H-pyran-3-yl)methyl)benzamide]
6.30 to 7.00 | 6.00 to 6.30 | O=C(NC[C@@H]1CCCOC1)c1ccc(C#Cc2ccc(F)cc2)cc1 [Example 100, (S)-4-((4-fluorophenyl)ethynyl)-N-((tetrahydro-2H-pyran-3-yl)methyl)benzamide]
> 7.00 | 6.30 to 7.00 | O=C(NC[C@H]1CCOC1)c1ccc(C#Cc2ccc(F)cc2)cc1 [Example 101, (R)-4-((4-fluorophenyl)ethynyl)-N-((tetrahydrofuran-3-yl)methyl)benzamide]
6.30 to 7.00 | > 7.00 | O=C(NC[C@@H]1CCOC1)c1ccc(C#Cc2ccc(F)cc2)cc1 [Example 102, (S)-4-((4-fluorophenyl)ethynyl)-N-((tetrahydrofuran-3-yl)methyl)benzamide]
5.70 to 6.00 | 5.70 to 6.00 | O=C(NCC1(F)COC1)c1ccc(C#Cc2ccccc2F)cc1 [Example 103, N-((3-fluorooxetan-3-yl)methyl)-4-((2-fluorophenyl)ethynyl)benzamide]
> 7.00 | 5.70 to 6.00 | CC1(CNC(=O)c2ccc(C#Cc3ccc(F)cc3)cc2)CCCCC1 [Example 104, 4-((4-fluorophenyl)ethynyl)-N-((1-methylcyclohexyl)methyl)benzamide]
